By Ki is commonly meant the equilibrium dissociation constant of an inhibitor or competing ligand from its target.

The target in this test is T1, Oxytocin Receptor (Homo sapiens, UniProt P30559).
T1 sequence (P30559 1-389): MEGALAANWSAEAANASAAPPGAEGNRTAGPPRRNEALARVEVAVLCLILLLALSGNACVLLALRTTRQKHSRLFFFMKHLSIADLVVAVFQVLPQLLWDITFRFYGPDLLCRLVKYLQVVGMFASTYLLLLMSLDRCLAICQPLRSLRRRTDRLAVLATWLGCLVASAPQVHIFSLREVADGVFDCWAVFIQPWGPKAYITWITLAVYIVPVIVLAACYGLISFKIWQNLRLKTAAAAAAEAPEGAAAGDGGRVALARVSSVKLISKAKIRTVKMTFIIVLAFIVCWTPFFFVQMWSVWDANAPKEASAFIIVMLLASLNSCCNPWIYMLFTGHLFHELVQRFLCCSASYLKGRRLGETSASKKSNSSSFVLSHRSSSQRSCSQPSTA
Kind of test: Oxytocin Receptor Beta-lactamase assay (as detailed in WO 2004/020414). As to conditions: read-out: Ki value (Oxytocin antagonist activity). Type of test: cell-based. The source says: A suitable assay for determining the Oxytocin antagonist activity of a compound is detailed in International Patent Application WO 2004/020414.
Regarding `COc1ccc(-n2c(C)nnc2-c2ccc(-c3ccccc3OC)cc2)c(OCCN2CCOCC2)n1` [Example 2, 4-[2-({6-Methoxy-3-[3-(2′-methoxybiphenyl-4-yl)-5-methyl-4H-1,2,4-triazol-4-yl]pyridin-2-yl}oxy)ethyl]morpholine], the Ki was 11.2 nM.

Consider `COc1ccc(-n2c(C)nnc2-c2ccc(-c3ccccc3OC)cc2OC)cc1` [Example 10, 3-(2′,3-Dimethoxybiphenyl-4-yl)-4-(4-methoxyphenyl)-5-methyl-4H-1,2,4-triazole], for which the Ki is 14.6 nM.

Regarding `COc1ccc(-n2c(Cn3nccn3)nnc2-c2ccc(-c3ccccc3OC)cc2)cc1` [Example 25], the Ki amounted to 11.7 nM.

For `COCCOc1nc(OC)ccc1-n1c(C)nnc1-c1ccc(-c2ccccc2OC)cc1` [Example 32, 6-Methoxy-3-[3-(2′-methoxybiphenyl-4-yl)-5-methyl-4H-1,2,4-triazol-4-yl]-2-(2-methoxyethoxy)pyridine], the Ki was 13.8 nM.

These data come from patent US20080214622A1, “Substituted Triazole Derivatives As Oxytocin Antagonists” (priority 2005, published 2008).
